Common to all, as to format: cell-based
In assay [1] the target is T1, human Nav1.7 (hNav1.7) (Homo sapiens, UniProt Q15858).
T1 construct: expressed in transfected cells
The assay can be described thus: hNav1.7 slow inactivation block, automated patchclamp. Conditions: HEK 293F cells stably expressing hNav1.7, slow inactivation induced in approximately 50% of channels. From the text: (§1) The generation of HEK 293F cell lines stably expressing human Nav1.7 (h Nav1.7), human Nav1.5 (hNav1.5) and rat Nav1.2 (r Nav1.2) was achieved by subcloning SCN9A, SCN5A, and SCN2A genes into inducible expression vectors followed by transfection into target cells using standard techniques. In the case of h Nav1.7, an expression vector encoding the human Navβ1 auxiliary subunit gene, SCN1B, was co-transfected with the expression vector bearing the SCN9A gene. Clones were selected using appropriate selection agents (0.3 mg/mL Zeocin and 0.8 mg/mL Geneticin) and maintained in Dulbecco's Modified Eagle medium, 10% fetal bovine serum, 1% non-essential amino acids to ˜80% confluence at 37° C. in a humidified incubator with 95% atmosphere and 5% CO2.
(§2) On the day of each experiment, cells that were grown to 80% confluence in a T75 flask were harvested for use on PatchXpress (Molecular Devices, CA, USA). Following a recovery period at 37° C. in a humidified incubator with 95% atmosphere and 5% CO2 in Dulbecco's Modified Eagle Medium, the media was replaced with an external recording solution containing (in mM): 90 TEACl, 50 NaCl, 1.8 CaCl2, 1 MgCl2, 10 HEPES, 10 glucose, adjusted to pH 7.4 with TEAOH and 300 mOsm with sucrose. The internal recording solution contained (in mM): 129 CsF, 2 MgCl2, 11 EGTA, 10 HEPES, 6 NaCl, 3 Na2ATP adjusted to pH 7.2 with CsOH and 280 mOsm with sucrose. The automated liquid handling facility of PatchXpress dispensed cells and added compound. Modulation of Nav1.7 channels by compounds was assessed by promoting the channels into the inactivated state using a conditioning voltage pulse of variable amplitude, followed by a brief hyperpolarizing pulse with a subsequent depolarized voltage step to measure the current amplitude in the presence and absence of compound.
(§3) In some cases, the potency of compounds was measured using either the Patchliner automated patch clamp platform (Nanion) or manual patch clamp techniques. Both approaches allowed the compounds to be characterized based upon the ability of a compound to modulate use- and/or state-dependence across human Nav1.7 (hNav1.7), human Nav1.5 (hNav1.5) and rat Nav1.2 (rNav1.2). The potency data is tabulated in Table 2 and is represented by six data fields. Three of the six fields represent potency data measured with the Patchliner automated platform under varying use- and state-dependent electrophysiology protocols similar to the PatchXpress protocols detailed above. For example, the second data column describes the potency of compounds in their ability to block 50% of Nav1.7 channels when the channel is repetitively activated by depolarizing voltage potentials to induce slow inactivation in approximately 50% of channels (Table 2: h Nav1.7: IC50 Slow Inactivation Block, Automated Patchclamp). The next three data fields describe the data generated from manual patchclamp electrophysiology measurements using similar methods to those employed for automated patchclamp studies.
A general note: The patch-clamp technique gives a direct electrical read-out from membranes.

For assay [2], the target named is T1, human Nav1.7 (hNav1.7). Briefly: hNav1.7 slow inactivation block, manual patchclamp. Particulars: HEK 293F cells stably expressing hNav1.7, slow inactivation induced in approximately 50% of channels.
Source text: as §1, §2, §3

The target in assay [3] is T2, rat Nav1.2 (rNav1.2) (Rattus norvegicus, UniProt P04775).
T2 construct: expressed in transfected cells
T2 sequence (P04775 whole entry): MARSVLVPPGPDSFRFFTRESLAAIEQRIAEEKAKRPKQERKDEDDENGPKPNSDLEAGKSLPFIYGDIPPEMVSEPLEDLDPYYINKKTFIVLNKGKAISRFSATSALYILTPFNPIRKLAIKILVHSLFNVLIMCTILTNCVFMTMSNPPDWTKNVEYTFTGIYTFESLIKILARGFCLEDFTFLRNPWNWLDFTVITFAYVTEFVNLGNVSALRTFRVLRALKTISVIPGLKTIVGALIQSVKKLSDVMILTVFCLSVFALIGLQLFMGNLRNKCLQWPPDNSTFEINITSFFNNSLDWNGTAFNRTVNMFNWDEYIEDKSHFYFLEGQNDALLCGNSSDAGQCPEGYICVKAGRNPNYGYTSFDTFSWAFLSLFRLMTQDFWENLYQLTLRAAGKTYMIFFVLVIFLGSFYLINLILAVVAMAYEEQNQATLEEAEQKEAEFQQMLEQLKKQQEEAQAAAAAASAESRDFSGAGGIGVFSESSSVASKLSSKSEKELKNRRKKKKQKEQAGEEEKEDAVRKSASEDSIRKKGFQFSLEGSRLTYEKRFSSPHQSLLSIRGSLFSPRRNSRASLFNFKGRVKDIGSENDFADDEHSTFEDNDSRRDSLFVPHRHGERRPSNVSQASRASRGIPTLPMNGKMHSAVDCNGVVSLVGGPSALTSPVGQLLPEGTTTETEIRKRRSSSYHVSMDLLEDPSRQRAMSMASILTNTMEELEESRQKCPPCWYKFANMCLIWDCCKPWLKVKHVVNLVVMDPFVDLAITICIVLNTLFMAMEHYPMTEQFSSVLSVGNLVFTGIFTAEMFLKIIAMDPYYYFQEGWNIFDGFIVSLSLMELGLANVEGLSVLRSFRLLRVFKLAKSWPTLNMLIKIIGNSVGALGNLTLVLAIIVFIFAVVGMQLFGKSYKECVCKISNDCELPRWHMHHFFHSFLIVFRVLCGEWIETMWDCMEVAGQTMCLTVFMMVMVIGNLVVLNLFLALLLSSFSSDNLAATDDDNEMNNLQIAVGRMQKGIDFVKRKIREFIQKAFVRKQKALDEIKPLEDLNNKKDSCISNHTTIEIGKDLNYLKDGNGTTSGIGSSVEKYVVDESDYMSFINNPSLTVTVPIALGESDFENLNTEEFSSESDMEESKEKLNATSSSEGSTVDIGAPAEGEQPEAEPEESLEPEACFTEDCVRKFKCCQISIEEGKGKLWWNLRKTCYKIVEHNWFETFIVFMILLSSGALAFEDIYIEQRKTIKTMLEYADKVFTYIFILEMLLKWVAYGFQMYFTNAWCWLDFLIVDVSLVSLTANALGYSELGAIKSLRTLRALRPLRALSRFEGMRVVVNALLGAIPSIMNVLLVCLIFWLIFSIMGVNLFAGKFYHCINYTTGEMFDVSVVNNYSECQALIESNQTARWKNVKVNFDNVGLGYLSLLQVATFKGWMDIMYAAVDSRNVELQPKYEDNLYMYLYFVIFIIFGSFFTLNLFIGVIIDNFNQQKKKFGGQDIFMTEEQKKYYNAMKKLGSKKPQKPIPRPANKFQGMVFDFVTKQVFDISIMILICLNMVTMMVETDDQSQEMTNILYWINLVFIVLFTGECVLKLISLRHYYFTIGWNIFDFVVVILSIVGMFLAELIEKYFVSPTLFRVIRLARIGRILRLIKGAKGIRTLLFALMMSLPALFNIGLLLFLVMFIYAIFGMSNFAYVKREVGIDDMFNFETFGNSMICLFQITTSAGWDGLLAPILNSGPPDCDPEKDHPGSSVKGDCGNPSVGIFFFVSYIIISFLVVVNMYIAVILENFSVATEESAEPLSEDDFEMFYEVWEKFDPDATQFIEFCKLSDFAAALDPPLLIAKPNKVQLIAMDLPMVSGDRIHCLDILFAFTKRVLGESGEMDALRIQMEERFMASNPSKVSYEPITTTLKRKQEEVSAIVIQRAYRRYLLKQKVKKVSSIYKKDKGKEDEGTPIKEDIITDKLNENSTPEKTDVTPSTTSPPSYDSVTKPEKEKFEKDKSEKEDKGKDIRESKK
The assay can be described thus: rNav1.2 slow inactivation block, manual patchclamp. Conditions: HEK 293F cells stably expressing rNav1.2.
Source text: as §1, §2, §3

Assay [4] deals with T2, rat Nav1.2 (rNav1.2). Briefly: rNav1.2 slow inactivation block, automated patchclamp. Conditions: HEK 293F cells stably expressing rNav1.2.
Source text: as §1, §2, §3

Usually IC50 stands for the concentration that gives 50% inhibition.

The structures appear in SMILES notation.

T1 sequence (Q15858 whole entry): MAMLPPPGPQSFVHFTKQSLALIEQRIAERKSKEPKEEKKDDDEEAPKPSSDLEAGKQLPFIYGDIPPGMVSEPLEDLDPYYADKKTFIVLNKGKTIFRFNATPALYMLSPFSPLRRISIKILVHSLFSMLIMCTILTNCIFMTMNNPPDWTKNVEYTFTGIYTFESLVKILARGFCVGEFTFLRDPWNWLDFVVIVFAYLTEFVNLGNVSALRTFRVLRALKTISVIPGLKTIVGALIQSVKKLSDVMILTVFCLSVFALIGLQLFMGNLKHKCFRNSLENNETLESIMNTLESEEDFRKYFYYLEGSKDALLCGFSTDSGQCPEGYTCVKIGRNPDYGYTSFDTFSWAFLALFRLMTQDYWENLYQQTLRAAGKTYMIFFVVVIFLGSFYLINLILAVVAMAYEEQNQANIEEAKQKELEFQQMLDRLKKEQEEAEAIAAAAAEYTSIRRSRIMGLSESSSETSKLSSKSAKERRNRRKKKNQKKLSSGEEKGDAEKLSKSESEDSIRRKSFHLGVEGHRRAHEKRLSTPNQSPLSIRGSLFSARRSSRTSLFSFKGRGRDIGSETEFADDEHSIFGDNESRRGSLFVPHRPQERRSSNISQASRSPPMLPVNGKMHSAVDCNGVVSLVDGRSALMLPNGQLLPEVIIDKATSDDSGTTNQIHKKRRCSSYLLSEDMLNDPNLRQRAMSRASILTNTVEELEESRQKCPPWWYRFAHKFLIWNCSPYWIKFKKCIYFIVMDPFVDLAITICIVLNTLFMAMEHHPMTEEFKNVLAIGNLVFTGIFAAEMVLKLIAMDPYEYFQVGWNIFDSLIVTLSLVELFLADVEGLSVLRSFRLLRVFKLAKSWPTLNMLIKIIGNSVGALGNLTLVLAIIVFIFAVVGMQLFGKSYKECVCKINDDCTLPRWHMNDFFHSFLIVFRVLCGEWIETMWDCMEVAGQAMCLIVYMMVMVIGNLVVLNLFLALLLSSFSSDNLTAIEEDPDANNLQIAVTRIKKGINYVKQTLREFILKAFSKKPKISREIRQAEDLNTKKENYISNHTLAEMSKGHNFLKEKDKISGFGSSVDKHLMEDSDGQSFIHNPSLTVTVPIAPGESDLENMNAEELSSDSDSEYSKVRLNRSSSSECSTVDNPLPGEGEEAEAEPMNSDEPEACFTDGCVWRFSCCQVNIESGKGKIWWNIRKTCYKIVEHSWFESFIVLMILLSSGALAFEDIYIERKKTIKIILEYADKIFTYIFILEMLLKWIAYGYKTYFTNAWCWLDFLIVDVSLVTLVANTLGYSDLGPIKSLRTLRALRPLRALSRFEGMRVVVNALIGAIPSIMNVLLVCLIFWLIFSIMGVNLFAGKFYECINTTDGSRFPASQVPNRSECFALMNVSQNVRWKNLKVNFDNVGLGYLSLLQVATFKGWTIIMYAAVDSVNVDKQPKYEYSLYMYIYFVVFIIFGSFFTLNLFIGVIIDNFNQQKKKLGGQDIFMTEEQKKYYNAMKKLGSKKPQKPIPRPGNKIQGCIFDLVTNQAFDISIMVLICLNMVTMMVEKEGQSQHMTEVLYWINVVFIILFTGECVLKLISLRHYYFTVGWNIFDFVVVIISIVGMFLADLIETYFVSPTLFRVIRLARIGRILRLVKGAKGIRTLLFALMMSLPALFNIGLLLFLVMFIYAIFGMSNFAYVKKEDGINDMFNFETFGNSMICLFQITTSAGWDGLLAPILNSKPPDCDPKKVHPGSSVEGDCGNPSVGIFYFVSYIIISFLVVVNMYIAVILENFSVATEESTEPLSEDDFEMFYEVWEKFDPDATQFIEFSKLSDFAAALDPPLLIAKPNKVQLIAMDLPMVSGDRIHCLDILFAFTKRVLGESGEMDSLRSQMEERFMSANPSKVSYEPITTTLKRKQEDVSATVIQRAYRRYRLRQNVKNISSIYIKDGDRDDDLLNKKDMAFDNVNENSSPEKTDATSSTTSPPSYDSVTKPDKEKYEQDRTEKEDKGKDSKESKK
T1 sequence (Q07699 19-218 partner): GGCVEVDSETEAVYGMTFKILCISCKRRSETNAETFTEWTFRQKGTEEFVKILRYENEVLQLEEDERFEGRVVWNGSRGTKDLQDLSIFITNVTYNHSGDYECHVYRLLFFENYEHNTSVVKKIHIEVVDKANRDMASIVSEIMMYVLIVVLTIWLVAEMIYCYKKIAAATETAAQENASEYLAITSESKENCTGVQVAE

For `O=C(NCc1cc(F)c(Oc2ccccc2)cc1F)[C@@H]1CCCN1` [Compound 3, (2S)-N-[(2,5-difluoro-4-phenoxyphenyl)methyl]pyrrolidine-2-carboxamide], the IC50 was found to be 5780 nM against human Nav1.7 (hNav1.7) [1], 1340 nM against human Nav1.7 (hNav1.7) [2] and 1890 nM against rat Nav1.2 (rNav1.2) [3].
In the case of `O=S(=O)(Nc1ncns1)c1ccc(Oc2cc(C(F)(F)F)cc(C(F)(F)F)c2)cc1` [Compound 6, 4-[3,5-bis(trifluoromethyl)phenoxy]-N-(1,2,4-thiadiazol-5-yl)benzene-1-sulfonamide], the results for the 50% inhibitory concentration (IC50) on human Nav1.7 (hNav1.7) [2] and at rat Nav1.2 (rNav1.2) [3] were ~39000 nM and > 10000 nM, respectively.
`O=S(=O)(Nc1nncs1)c1ccc(Oc2cc(C(F)(F)F)cc(C(F)(F)F)c2)cc1` [Compound 7, 4-[3,5-bis(trifluoromethyl)phenoxy]-N-(1,3,4-thiadiazol-2-yl)benzene-1-sulfonamide]: the IC50 against human Nav1.7 (hNav1.7) [1] was > 32000 nM.
On the same count and under the same terms, as for `O=S(=O)(Nc1nncs1)c1cc(F)c(Oc2cc(C(F)(F)F)cc(C(F)(F)F)c2)cc1F` [Compound 8, 4-[3,5-bis(trifluoromethyl)phenoxy]-2,5-difluoro-N-(1,3,4-thiadiazol-2-yl)benzene-1-sulfonamide], the figure is > 32000 nM; as for `O=S(=O)(Nc1nccs1)c1ccc(Oc2cc(C(F)(F)F)cc(C(F)(F)F)c2)cc1` [Compound 9, 4-[3,5-bis(trifluoromethyl)phenoxy]-N-(1,3-thiazol-2-yl)benzene-1-sulfonamide], ~29500 nM.
As for `N#Cc1cc(S(=O)(=O)Nc2nncs2)ccc1Oc1cc(C(F)(F)F)cc(C(F)(F)F)c1` [Compound 10, 4-[3,5-bis(trifluoromethyl)phenoxy]-3-cyano-N-(1,3,4-thiadiazol-2-yl)benzene-1-sulfonamide], the IC50 was > 32000 nM against human Nav1.7 (hNav1.7) [1], > 10000 nM on human Nav1.7 (hNav1.7) [2] and > 10000 nM against rat Nav1.2 (rNav1.2) [3].
For `O=S(=O)(Nc1ncns1)c1ccc(Oc2cc(C(F)(F)F)cc(C(F)(F)F)c2)c(F)c1` [Compound 11, 4-[3,5-bis(trifluoromethyl)phenoxy]-3-fluoro-N-(1,2,4-thiadiazol-5-yl)benzene-1-sulfonamide], the IC50 at human Nav1.7 (hNav1.7) [1] is > 32000 nM; against human Nav1.7 (hNav1.7) [2] it was > 3200 nM; against rat Nav1.2 (rNav1.2) [3] it was > 10000 nM.
`O=C(Nc1ncns1)c1cc(F)c(Oc2cc(C(F)(F)F)cc(C(F)(F)F)c2)cc1F` [Compound 12, 4-[3,5-bis(trifluoromethyl)phenoxy]-2,5-difluoro-N-(1,2,4-thiadiazol-5-yl)benzamide]: the IC50 on human Nav1.7 (hNav1.7) [1] was > 32000 nM; against human Nav1.7 (hNav1.7) [2], ~5590 nM; at rat Nav1.2 (rNav1.2) [3], > 3200 nM.
`CS(=O)(=O)NC(=O)c1cc(F)c(Oc2cc(C(F)(F)F)cc(C(F)(F)F)c2)cc1F` [Compound 13, 4-[3,5-bis(trifluoromethyl)phenoxy]-2,5-difluoro-N-methanesulfonylbenzamide]: the IC50 against human Nav1.7 (hNav1.7) [1] is 19200 nM; against human Nav1.7 (hNav1.7) [2], ~10300 nM; against rat Nav1.2 (rNav1.2) [3] it was > 10000 nM.
Take `O=C(Nc1nncs1)c1cc(F)c(Oc2cc(C(F)(F)F)cc(C(F)(F)F)c2)cc1F` [Compound 15, 4-[3,5-bis(trifluoromethyl)phenoxy]-2,5-difluoro-N-(1,3,4-thiadiazol-2-yl)benzamide]: the results for the IC50 at human Nav1.7 (hNav1.7) [1], at human Nav1.7 (hNav1.7) [2] and on rat Nav1.2 (rNav1.2) [3] were > 32000 nM, 4960 nM and 4320 nM, respectively.
Turning to `O=S(=O)(Nc1ncns1)c1ccc(Oc2cc(C(F)(F)F)cc(C(F)(F)F)c2)c(Cl)c1` [Compound 16, 4-[3,5-bis(trifluoromethyl)phenoxy]-3-chloro-N-(1,2,4-thiadiazol-5-yl)benzene-1-sulfonamide], the IC50 at rat Nav1.2 (rNav1.2) [4] was > 32000 nM; on human Nav1.7 (hNav1.7) [1], 21100 nM; against rat Nav1.2 (rNav1.2) [3], > 10000 nM.
Turning to `O=S(=O)(Nc1ccncn1)c1cc(F)c(Oc2cc(C(F)(F)F)cc(C(F)(F)F)c2)cc1F` [Compound 18, 4-[3,5-bis(trifluoromethyl)phenoxy]-2,5-difluoro-N-(pyrimidin-4-yl)benzene-1-sulfonamide], the 50% inhibitory concentration (IC50) against rat Nav1.2 (rNav1.2) [4] is > 32000 nM; on human Nav1.7 (hNav1.7) [1], > 32000 nM; against human Nav1.7 (hNav1.7) [2], ~9760 nM.
Turning to `O=C(Cc1cc(F)c(Oc2cc(C(F)(F)F)cc(C(F)(F)F)c2)cc1F)Nc1ncns1` [Compound 22, 2-{4-[3,5-bis(trifluoromethyl)phenoxy]-2,5-difluorophenyl}-N-(1,2,4-thiadiazol-5-yl)acetamide], the figures for the IC50 on rat Nav1.2 (rNav1.2) [4], at human Nav1.7 (hNav1.7) [1] and against human Nav1.7 (hNav1.7) [2] were > 32000 nM, > 32000 nM and > 3200 nM, respectively.
Consider `CNC(=O)c1cc(Oc2cc(F)c(S(=O)(=O)Nc3ncns3)cc2F)cc(C(F)(F)F)c1` [Compound 25, 3-{2,5-difluoro-4-[(1,2,4-thiadiazol-5-yl)sulfamoyl]phenoxy}-N-methyl-5-(trifluoromethyl)benzamide], for which the IC50 was > 32000 nM against rat Nav1.2 (rNav1.2) [4], ~41800 nM on human Nav1.7 (hNav1.7) [1] and ~19200 nM at human Nav1.7 (hNav1.7) [2].
Consider `CCNC(=O)c1cc(Oc2cc(F)c(S(=O)(=O)Nc3ncns3)cc2F)cc(C(F)(F)F)c1` [Compound 35, 3-{2,5-difluoro-4-[(1,2,4-thiadiazol-5-yl)sulfamoyl]phenoxy}-N-ethyl-5 (trifluoromethyl)benzamide], for which the results for the IC50 at human Nav1.7 (hNav1.7) [1] and against human Nav1.7 (hNav1.7) [2] were > 32000 nM and ~16200 nM, respectively.
The like results for `O=C(c1cc(Oc2cc(F)c(S(=O)(=O)Nc3ncns3)cc2F)cc(C(F)(F)F)c1)N1CCCC1` [Compound 39, 2,5-difluoro-4-{3-[(pyrrolidin-1-yl)carbonyl]-5-(trifluoromethyl)phenoxy}-N-(1,2,4-thiadiazol-5-yl)benzene-1-sulfonamide] were, in that order, ~21700 nM and ~6930 nM.
The like results for `COCc1nsc(NS(=O)(=O)c2cc(F)c(Oc3cc(OC)cc(C(F)(F)F)c3)cc2F)n1` [Compound 44, 2,5-difluoro-4-[3-methoxy-5-(trifluoromethyl)phenoxy]-N-[3-(methoxymethyl)-1,2,4-thiadiazol-5-yl]benzene-1-sulfonamide] were, in that order, > 32000 nM and > 10000 nM.
Turning to `O=C(NCc1cc(-c2cc(C(F)(F)F)cc(C(F)(F)F)c2)cc(C(F)(F)F)c1)[C@@H]1C[C@H](F)CN1` [Compound 54, (2S,4S)-4-fluoro-N-((3′,5,5′-tris(trifluoromethyl)-[1,1′-biphenyl]-3-yl)methyl)pyrrolidine-2-carboxamide], the results for the IC50 against human Nav1.7 (hNav1.7) [1], against human Nav1.7 (hNav1.7) [2] and at rat Nav1.2 (rNav1.2) [3] were 5130 nM, 741 nM and 744 nM, respectively.
For the compound `O=C(NCc1cccc(-c2cc(C(F)(F)F)cc(C(F)(F)F)c2)c1)C1CC[C@H](O)C1` (stereo partly drawn) [Example 63, (3S)-N-({3-[3,5-bis(trifluoromethyl)phenyl]phenyl}methyl)-3-hydroxycyclopentane-1-carboxamide], the IC50 at human Nav1.7 (hNav1.7) [2] came out at 2680 nM; on rat Nav1.2 (rNav1.2) [3] it was 2370 nM.
The like results for `O=C(NCc1cccc(-c2cc(C(F)(F)F)cc(C(F)(F)F)c2)c1)C1CC[C@@H](O)C1` (stereo partly drawn) [Example 64, (3R)-N-({3-[3,5-bis(trifluoromethyl)phenyl]phenyl}methyl)-3-hydroxycyclopentane-1-carboxamide] were, in that order, 1570 nM and 961 nM.
For the compound `O=C(NCc1cccc(-c2cc(C(F)(F)F)cc(C(F)(F)F)c2)c1)C1CC[C@@H](F)C1` (stereo partly drawn) [Example 65, (3R)-N-({3-[3,5-bis(trifluoromethyl)phenyl]phenyl}methyl)-3-fluorocyclopentane-1-carboxamide], the results for the IC50 at human Nav1.7 (hNav1.7) [2] and against rat Nav1.2 (rNav1.2) [3] were 477 nM and 351 nM, respectively.

The values are drawn from US11236078B2, “Heterocyclic inhibitors of the sodium channel” (priority 2014, dated 2022).
